Test results reported in PMC8952364, “Polyphenols as Inhibitors of Antibiotic Resistant Bacteria—Mechanisms Underlying Rutin Interference with Bacterial Virulence” (Pharmaceuticals, 2022).
≈ marks a conversion by molar mass, not a printed value. Read-outs that look alike come from different tables or passages of the source.

How the values were obtained:
[1] = test system: Methicillin resistant S. aureus IBRS MRSA 011; assay: Antimicrobial microdilution assay (MIC/MBC); type: cell-based, Staphylococcus aureus; conditions: for MIC: 37 °C, 24 h; for MBC: subcultivation, 24 h at 37 °C
Procedure: (§1) The bacterial suspension (0.5 Mc Farland) was prepared, and twenty-fold dilutions of these suspensions were mixed in a 1:10 ratio with the corresponding polyphenol dilution (0.0039–1 mg/mL). Microtiter plates were incubated at 37 °C for 24 h. The lowest concentrations without visible growth (under a binocular microscope) were defined as MICs. The bactericidal concentrations (MBCs) were determined by serial subcultivation of 2 μL of the well’s content and further incubation for 24 h at 37 °C. Streptomycin (SigmaAldrich, Darmstadt, Germany) was used as a positive control. The polyphenols were obtained from Extrasynthese, Rhone, France (rutin, isoquercitrin) and SigmaAldrich, Germany (hesperetin, hesperidin, naringenin, naringin, taxifolin, morin, chlorogenic acid, ferulic acid, p-coumaric acid, and gallic acid). The stock compounds were prepared in ethanol (30%), and adequate ethanol concentrations were used as the negative control in the assays. Experiments were done in triplicate.

[2] = test system: P. aeruginosa IBRS P001; assay: Antimicrobial microdilution assay (MIC/MBC); type: cell-based, Pseudomonas aeruginosa; conditions: for MIC: 37 °C, 24 h; for MBC: subcultivation, 24 h at 37 °C
Procedure: as §1

[3] = test system: P. aeruginosa MMA83; assay: Antimicrobial microdilution assay (MIC/MBC); type: cell-based, Pseudomonas aeruginosa; conditions: for MIC: 37 °C, 24 h; for MBC: subcultivation, 24 h at 37 °C
Procedure: as §1

[4] = test system: E. coli IBRS E003; assay: Antimicrobial microdilution assay (MIC/MBC); type: cell-based, Escherichia coli; conditions: for MIC: 37 °C, 24 h; for MBC: subcultivation, 24 h at 37 °C
Procedure: as §1

[5] = test system: E. coli IMD989; assay: Antimicrobial microdilution assay (MIC/MBC); type: cell-based, Escherichia coli; conditions: for MIC: 37 °C, 24 h; for MBC: subcultivation, 24 h at 37 °C
Procedure: as §1

[6] = test system: A. baumannii 6077/12; assay: Antimicrobial microdilution assay (MIC/MBC); type: cell-based, Acinetobacter baumannii; conditions: for MIC: 37 °C, 24 h; for MBC: subcultivation, 24 h at 37 °C
Procedure: as §1

[7] = test system: A. baumannii S2/2; assay: Antimicrobial microdilution assay (MIC/MBC); type: cell-based, Acinetobacter baumannii; conditions: for MIC: 37 °C, 24 h; for MBC: subcultivation, 24 h at 37 °C
Procedure: as §1

[8] = test system: K. pneumoniae IT977; assay: Antimicrobial microdilution assay (MIC/MBC); type: cell-based, Klebsiella pneumoniae; conditions: for MIC: 37 °C, 24 h; for MBC: subcultivation, 24 h at 37 °C
Procedure: as §1

[9] = test system: K. pneumoniae Ni9; assay: Antimicrobial microdilution assay (MIC/MBC); type: cell-based, Klebsiella pneumoniae; conditions: for MIC: 37 °C, 24 h; for MBC: subcultivation, 24 h at 37 °C
Procedure: as §1

[10] = test system: A. xylosoxidans 37F; assay: Antimicrobial microdilution assay (MIC/MBC); type: cell-based, Achromobacter xylosoxidans; conditions: for MIC: 37 °C, 24 h; for MBC: subcultivation, 24 h at 37 °C
Procedure: as §1

[11] = test system: S. infantis 1371/1; assay: Antimicrobial microdilution assay (MIC/MBC); type: cell-based, Salmonella Infantis; conditions: for MIC: 37 °C, 24 h; for MBC: subcultivation, 24 h at 37 °C
Procedure: as §1

[12] = test system: P. aeruginosa IBRS P001 biofilm; assay: Crystal violet antibiofilm assay (biofilm formation); type: cell-based, Pseudomonas aeruginosa; conditions: 24 h
Procedure: After incubation, each well was washed twice with sterile PBS (phosphate-buffered saline, pH 7.4) and fixed with methanol for 10 min. After removal of methanol the plate was air-dried. The biofilm was stained with 0.1% crystal violet (Bio-Merieux, Marcy l’Etoile, France) for 30 min. The plate was washed with water, air dried, and the stain was dissolved with 200 μL of 96% ethanol (Zorka, Sabac, Serbia). The absorbance was read at 620 nm on a Multiskan™ FC microplate photometer (Thermo Scientific™, Waltham, MA, USA). The results are presented as biofilm forming capacity (%) compared to control.

[13] = test system: HaCaT cells; assay: Cytotoxicity in HaCaT cell line (crystal violet assay); type: cell-based, human; conditions: HaCaT, 24 h treatment, crystal violet
Procedure: For determination of the polyphenols’ cytotoxic effect, a crystal violet assay was used, with modifications. The cytotoxic effect of polyphenols was analyzed on spontaneously immortalized human skin keratinocytes (HaCaT, AddexBio No. T0020001, San Diego, CA, USA) cell lines. […] Cells (1 × 10^4 cells/well) were seeded in a 96-well plate (Sarstedt, Nümbrecht, Germany) 24 h before treatment. […] Cells were incubated with the compounds for 24 h. […] After crystal violet was removed, the plates were washed in a stream of tap water and left to air-dry at room temperature for 24 h. The absorbance was measured in a microplate reader (Multiskan™ FC Microplate Photometer, Thermo Scientific™) at 590 nm. The results were expressed as IC50 value in μg/mL. The criterion used to categorize the cytotoxic activity polyphenols was as follows: […] All analyses were performed in triplicate; each replicate was also quantified three times. Data were expressed as mean standard deviation, where applicable.

[14] = test system: eleven antibiotic resistant strains of bacteria; assay: Antimicrobial assay, summary over the examined strains; type: cell-based; conditions: antibiotic resistant strains of Table 1
Procedure: as §1

[15] = test system: E. coli CECT434; set-up: method as in PMID 22823343; conditions: cited from earlier work
[16] = test system: P. aeruginosa ATCC 10145; set-up: method as in PMID 22823343; conditions: cited from earlier work
[17] = test system: S. aureus CECT 976; set-up: method as in PMID 22823343; conditions: cited from earlier work
[18] = test system: P. aeruginosa ATCC 10145 biofilms; set-up: method as in PMID 22823343; conditions: 1000 µg/mL; cited from earlier work
[19] = test system: E. coli ATCC 25922; set-up: method as in PMID 29327068; conditions: cited from earlier work
[20] = test system: HaCaT cells; set-up: method as in PMID 28962387; conditions: previous assessment; cited from earlier work

## COc1cc(/C=C/C(=O)O)ccc1O [Ferulic acid, ferulic acid]
[1]
  MIC: 500 µg/mL (≈ 2.57 mM)
  MBC: 1000 µg/mL (≈ 5.15 mM)
[2]
  MIC: 500 µg/mL (≈ 2.57 mM)
  MBC: 1000 µg/mL (≈ 5.15 mM)
[3]
  MIC: 1000 µg/mL (≈ 5.15 mM)
  MBC: 1000 µg/mL (≈ 5.15 mM)
[4]
  MIC: >1000 µg/mL
  MBC: >1000 µg/mL
[5]
  MIC: 1000 µg/mL (≈ 5.15 mM)
  MBC: 1000 µg/mL (≈ 5.15 mM)
[6]
  MIC: 500 µg/mL (≈ 2.57 mM)
  MBC: 500 µg/mL (≈ 2.57 mM)
[7]
  MIC: 500 µg/mL (≈ 2.57 mM)
  MBC: 500 µg/mL (≈ 2.57 mM)
[8]
  MIC: 1000 µg/mL (≈ 5.15 mM)
  MBC: 1000 µg/mL (≈ 5.15 mM)
[9]
  MIC: 1000 µg/mL (≈ 5.15 mM)
  MBC: 1000 µg/mL (≈ 5.15 mM)
[10]
  MIC: 1000 µg/mL (≈ 5.15 mM)
  MBC: 1000 µg/mL (≈ 5.15 mM)
[11]
  MIC: 1000 µg/mL (≈ 5.15 mM)
  MBC: 1000 µg/mL (≈ 5.15 mM)
[12]; 500 µg/mL (MIC)
  biofilm inhibition: even higher inhibition
[12]; MIC and sub-MIC, crystal violet, Figure 1
  reduction of biofilm formation (biomass), in words: significant (****, p < 0.0001) reduction
[13]
  IC50 (compound concentration that inhibited 50% of the cell growth): >1000 µg/mL
[14]
  lowest MIC among the examined strains: 500 µg/mL
[15]
  MIC: 100 µg/mL (≈ 0.515 mM)
[16]
  MIC: 100 µg/mL (≈ 0.515 mM)
[17]
  MIC: 1100 µg/mL (≈ 5.66 mM)
[18]
  reduction of biofilms: more than 70%

## O=C(O)c1cc(O)c(O)c(O)c1 [Gallic Acid, gallic acid]
[1]; Staphylococcus aureus, MRSA, read-out: MIC
  MIC: > 1000 µg/mL
[1]; Staphylococcus aureus, MRSA, read-out: MBC
  MBC: > 1000 µg/mL
[2]; Pseudomonas aeruginosa, IBRSP001, read-out: MIC
  MIC: > 1000 µg/mL
[2]; Pseudomonas aeruginosa, IBRSP001, read-out: MBC
  MBC: > 1000 µg/mL
[3]; Pseudomonas aeruginosa, MMA83, read-out: MIC
  MIC: 1000 µg/mL (≈ 5.88 mM)
[3]; Pseudomonas aeruginosa, MMA83, read-out: MBC
  MBC: 1000 µg/mL (≈ 5.88 mM)
[4]
  MIC: >1000 µg/mL
[4]; Escherichia coli, IBRSE003, read-out: MIC
  MIC: > 1000 µg/mL
[4]; Escherichia coli, IBRSE003, read-out: MBC
  MBC: > 1000 µg/mL
[5]
  MIC: >1000 µg/mL
[5]; Escherichia coli, IMD989, read-out: MIC
  MIC: > 1000 µg/mL
[5]; Escherichia coli, IMD989, read-out: MBC
  MBC: > 1000 µg/mL
[6]; Acinetobacter baumannii, 6077/12, read-out: MIC
  MIC: 500 µg/mL (≈ 2.94 mM)
[6]; Acinetobacter baumannii, 6077/12, read-out: MBC
  MBC: 1000 µg/mL (≈ 5.88 mM)
[7]; Acinetobacter baumannii, S2/2, read-out: MIC
  MIC: 500 µg/mL (≈ 2.94 mM)
[7]; Acinetobacter baumannii, S2/2, read-out: MBC
  MBC: 500 µg/mL (≈ 2.94 mM)
[8]; Klebsiella pneumoniae, IT977, read-out: MIC
  MIC: 1000 µg/mL (≈ 5.88 mM)
[8]; Klebsiella pneumoniae, IT977, read-out: MBC
  MBC: 1000 µg/mL (≈ 5.88 mM)
[9]; Klebsiella pneumoniae, NI9, read-out: MIC
  MIC: 1000 µg/mL (≈ 5.88 mM)
[9]; Klebsiella pneumoniae, NI9, read-out: MBC
  MBC: 1000 µg/mL (≈ 5.88 mM)
[10]; Achromobacter xylosoxidans, 37F, read-out: MIC
  MIC: 500 µg/mL (≈ 2.94 mM)
[10]; Achromobacter xylosoxidans, 37F, read-out: MBC
  MBC: 1000 µg/mL (≈ 5.88 mM)
[11]; Salmonella enterica, 1371/1, read-out: MIC
  MIC: > 1000 µg/mL
[11]; Salmonella enterica, 1371/1, read-out: MBC
  MBC: > 1000 µg/mL
[13]; Homo sapiens, read-out: IC50 (compound concentration that inhibited 50% of the cell growth)
  IC50: < 80 µg/mL
[19]
  MIC: 500 µg/mL (≈ 2.94 mM)
[20]
  IC50 towards HaCaT cells: 84.2 µg/mL (≈ 0.495 mM)
